This is an account of results in US7629341B2, “Human ADAM-10 inhibitors” (Symphony Evolution, Inc., priority 2003, dated 2009).

Where only a bound is given, the exact number is not on record here.

One test deals with T1, ADAM-10 (UniProt O14672).
T1 sequence (O14672 1-748): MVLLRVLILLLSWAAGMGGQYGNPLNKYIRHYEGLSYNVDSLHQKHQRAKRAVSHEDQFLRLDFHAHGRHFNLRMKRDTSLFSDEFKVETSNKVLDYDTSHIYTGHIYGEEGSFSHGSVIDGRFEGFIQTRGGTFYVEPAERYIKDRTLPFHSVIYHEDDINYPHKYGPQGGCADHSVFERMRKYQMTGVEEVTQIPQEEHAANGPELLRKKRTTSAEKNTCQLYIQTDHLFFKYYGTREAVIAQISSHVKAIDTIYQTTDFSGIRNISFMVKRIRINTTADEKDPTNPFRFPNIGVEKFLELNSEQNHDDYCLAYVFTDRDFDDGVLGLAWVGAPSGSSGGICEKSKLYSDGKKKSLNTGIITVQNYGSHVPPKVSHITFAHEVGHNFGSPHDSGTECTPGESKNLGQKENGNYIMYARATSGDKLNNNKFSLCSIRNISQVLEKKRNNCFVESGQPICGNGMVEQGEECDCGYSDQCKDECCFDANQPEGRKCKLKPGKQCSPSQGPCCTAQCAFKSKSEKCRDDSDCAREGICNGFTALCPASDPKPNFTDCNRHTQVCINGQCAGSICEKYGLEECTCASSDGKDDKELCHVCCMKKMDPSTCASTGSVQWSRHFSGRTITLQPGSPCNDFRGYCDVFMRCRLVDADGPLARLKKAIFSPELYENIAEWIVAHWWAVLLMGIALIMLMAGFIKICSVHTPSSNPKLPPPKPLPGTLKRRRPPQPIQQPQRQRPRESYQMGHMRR
Briefly: ADAM-10 enzyme assay, cleavage of a fluorogenic 10-residue peptide.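 Also: mouse or human ADAM-10 at 5 nM active enzyme, pH 8.0 HEPES buffer with CaCl2 and NP-40, compounds titrated 100 µM down to 0.5 nM, fluorescence read after 16 h at room temperature.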 Type of test: biochemical, mouse or human (mADAM-10 or hADAM-10). The conditions noted are these: in vitro.

The target in test [1] is T2, MMP-1 (Fibroblast collagenase) (Homo sapiens, UniProt P03956).
T2 sequence (P03956 100-469): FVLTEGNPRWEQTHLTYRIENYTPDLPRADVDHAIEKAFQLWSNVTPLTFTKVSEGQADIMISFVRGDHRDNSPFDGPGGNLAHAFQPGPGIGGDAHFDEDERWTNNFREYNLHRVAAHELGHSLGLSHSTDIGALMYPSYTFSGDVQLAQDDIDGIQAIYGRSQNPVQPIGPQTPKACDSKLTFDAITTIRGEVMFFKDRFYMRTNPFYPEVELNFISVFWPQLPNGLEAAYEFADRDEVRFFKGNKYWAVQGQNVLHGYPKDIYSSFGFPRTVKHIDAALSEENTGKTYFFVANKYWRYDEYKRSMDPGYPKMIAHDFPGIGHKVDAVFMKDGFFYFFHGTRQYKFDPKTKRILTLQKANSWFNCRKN
Briefly: In vitro metalloprotease inhibition, MMP-1. Type of test: biochemical. An excerpt: (§1) Blank cells indicate lack of data only.

In test [2] the target is T3, MMP-2 (72 kDa gelatinase, gelatinase A) (Homo sapiens, UniProt P08253).
T3 sequence (P08253 110-660): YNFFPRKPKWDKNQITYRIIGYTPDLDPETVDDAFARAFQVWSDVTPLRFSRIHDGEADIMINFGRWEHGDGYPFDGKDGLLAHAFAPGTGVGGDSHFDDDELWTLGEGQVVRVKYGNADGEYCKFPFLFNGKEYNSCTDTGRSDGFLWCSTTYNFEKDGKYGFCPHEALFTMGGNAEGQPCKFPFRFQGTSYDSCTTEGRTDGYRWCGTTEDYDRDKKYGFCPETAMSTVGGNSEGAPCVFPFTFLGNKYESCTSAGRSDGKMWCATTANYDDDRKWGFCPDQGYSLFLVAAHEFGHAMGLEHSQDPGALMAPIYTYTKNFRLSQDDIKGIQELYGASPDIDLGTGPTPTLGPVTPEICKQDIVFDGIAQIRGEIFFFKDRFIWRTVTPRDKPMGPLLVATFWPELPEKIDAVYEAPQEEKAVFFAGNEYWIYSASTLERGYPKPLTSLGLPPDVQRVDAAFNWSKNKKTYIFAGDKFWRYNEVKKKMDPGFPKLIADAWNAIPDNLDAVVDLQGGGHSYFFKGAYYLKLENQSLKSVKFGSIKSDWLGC
Briefly: In vitro metalloprotease inhibition, MMP-2. In kind it is biochemical.

In a further test the target is MMP-3 (Stromelysin-1) (Homo sapiens, UniProt P08254). The test is described as follows: In vitro metalloprotease inhibition, MMP-3. Type of test: biochemical.
MMP-3 (Stromelysin-1), sequence (P08254 100-477, species assumed): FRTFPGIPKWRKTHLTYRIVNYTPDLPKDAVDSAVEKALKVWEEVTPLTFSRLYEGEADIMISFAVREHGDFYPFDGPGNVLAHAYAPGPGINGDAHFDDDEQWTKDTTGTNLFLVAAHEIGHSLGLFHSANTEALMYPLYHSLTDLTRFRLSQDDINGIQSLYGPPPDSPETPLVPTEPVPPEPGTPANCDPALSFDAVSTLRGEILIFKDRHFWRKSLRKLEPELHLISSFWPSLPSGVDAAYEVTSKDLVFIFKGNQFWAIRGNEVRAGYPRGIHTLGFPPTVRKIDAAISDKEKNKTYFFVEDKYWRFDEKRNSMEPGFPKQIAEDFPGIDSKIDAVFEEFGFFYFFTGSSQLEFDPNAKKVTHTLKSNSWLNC
Source text: as §1

The next test deals with MMP-13 (collagenase-3) (Homo sapiens, UniProt P45452). The test is described as follows: In vitro metalloprotease inhibition, MMP-13. Type of test: biochemical.
In test [3] the target is TACE (TNF-alpha converting enzyme, ADAM-17) (Homo sapiens, UniProt P78536). Briefly: In vitro metalloprotease inhibition, TACE. In kind it is biochemical.
TACE (TNF-alpha converting enzyme, ADAM-17), sequence (P78536 215-824): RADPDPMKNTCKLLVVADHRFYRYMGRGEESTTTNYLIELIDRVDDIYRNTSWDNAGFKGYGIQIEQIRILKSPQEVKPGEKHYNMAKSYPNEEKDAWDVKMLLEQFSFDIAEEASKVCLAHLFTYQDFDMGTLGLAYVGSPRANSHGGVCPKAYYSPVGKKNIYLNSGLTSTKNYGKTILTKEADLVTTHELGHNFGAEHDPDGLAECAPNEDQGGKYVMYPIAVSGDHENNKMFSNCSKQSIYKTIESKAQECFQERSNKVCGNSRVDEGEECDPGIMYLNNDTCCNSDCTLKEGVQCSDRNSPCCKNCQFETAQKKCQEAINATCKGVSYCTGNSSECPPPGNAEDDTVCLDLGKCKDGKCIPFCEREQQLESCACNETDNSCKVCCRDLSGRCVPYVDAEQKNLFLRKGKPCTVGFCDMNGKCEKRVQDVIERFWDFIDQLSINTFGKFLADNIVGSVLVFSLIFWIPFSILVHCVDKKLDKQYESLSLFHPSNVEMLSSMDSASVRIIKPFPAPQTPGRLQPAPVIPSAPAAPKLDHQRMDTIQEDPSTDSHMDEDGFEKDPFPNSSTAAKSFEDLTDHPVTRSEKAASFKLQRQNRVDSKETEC
Source text: as §1

Protocol for ADAM-10: mADAM-10 or hADAM-10 activity was measured as the ability to cleave a 10-residue peptide (DABCYL-Leu-Leu-Ala-Gln-Lys-*-LeuArg-Ser-Ser-Arg-EDANS). […] Enzyme was diluted to a final active concentration of 5 nM in Buffer A (50 mM HEPES 8.0, 100 mM NaCl, 1 mM CaCl2 and 0.01% NP-40). Serial dilutions for compounds were performed ranging from 100 μM to 0.5 nM using a Beckman Biomek 2000 in polypropylene plates (Greiner). […] This reaction was incubated for 16 hr at RT and fluorescence was read using identical conditions.

As to `O=C(CN1CCOCC1)NC(=O)N1CCN(S(=O)(=O)c2cc(F)c(Oc3ccc(Cl)cc3)c(F)c2)[C@@H](C(=O)NO)C1` [Entry 46], the IC50 against ADAM-10 is less than 0.05 µM; in test [1], 1 to 20 µM; in test [2], less than 0.05 µM; against MMP-3 (Stromelysin-1), 0.05 to 1 µM; against MMP-13 (collagenase-3), less than 0.05 µM.
For the compound `CN(C)c1cccc2c(S(=O)(=O)N3CCN(S(=O)(=O)c4cc(F)c(Oc5ccc(Cl)cc5)c(F)c4)[C@@H](C(=O)NO)C3)cccc12` [Entry 60], the IC50 against ADAM-10 is 0.05 to 1 µM; in test [1] it was greater than 20 µM; in test [2], less than 0.05 µM; against MMP-3 (Stromelysin-1), 1 to 20 µM; against MMP-13 (collagenase-3) it was less than 0.05 µM.
`CCCC(CCC)C(=O)N1CCN(S(=O)(=O)c2cc(F)c(Oc3ccc(Cl)cc3)c(F)c2)[C@@H](C(=O)NO)C1` [Entry 44]: the IC50 against ADAM-10 was less than 0.05 µM; in test [1] it was greater than 20 µM; in test [2] it was less than 0.05 µM; on MMP-3 (Stromelysin-1), 1 to 20 µM; against MMP-13 (collagenase-3), 0.05 to 1 µM.
Regarding `O=C(NO)[C@H]1CN(CC(=O)N2CCCC2)CCN1S(=O)(=O)c1cc(F)c(Oc2ccc(Cl)cc2)c(F)c1` [Entry 21], the IC50 was less than 0.05 µM on ADAM-10; greater than 20 µM in test [1]; less than 0.05 µM in test [2]; 1 to 20 µM at MMP-3 (Stromelysin-1); 0.05 to 1 µM against MMP-13 (collagenase-3).
As to `O=C(NO)[C@H]1CN(S(=O)(=O)CCN2CCOCC2)CCN1S(=O)(=O)c1cc(F)c(Oc2ccc(Cl)cc2)c(F)c1` [Entry 57], the IC50 is 0.05 to 1 µM against ADAM-10; greater than 20 µM in test [1]; 0.05 to 1 µM in test [2]; 1 to 20 µM against MMP-3 (Stromelysin-1); 0.05 to 1 µM against MMP-13 (collagenase-3).
Regarding `CS(=O)(=O)N1CCN(S(=O)(=O)c2cc(F)c(Oc3ccc(Cl)cc3)c(F)c2)[C@@H](C(=O)NO)C1` [Entry 28], the half-inhibitory concentration (IC50) against ADAM-10 is less than 0.05 µM; in test [1], 0.05 to 1 µM; in test [2], less than 0.05 µM; at MMP-3 (Stromelysin-1), 0.05 to 1 µM; at MMP-13 (collagenase-3), less than 0.05 µM.
For `COCCOC(=O)N1CCN(S(=O)(=O)c2ccc(Oc3ccc(F)cc3)nc2)[C@@H](C(=O)NO)C1` [Entry 65], the IC50 at ADAM-10 was 0.05 to 1 µM; in test [1], less than 0.05 µM; in test [2], less than 0.05 µM; on MMP-3 (Stromelysin-1), less than 0.05 µM; at MMP-13 (collagenase-3), less than 0.05 µM.
For the compound `COCCOC(=O)N1CCN(S(=O)(=O)c2cc(F)c(Oc3ccc(Cl)cc3)c(F)c2)[C@@H](C(=O)NO)C1` [Entry 15], the results for the IC50 (in test [3]; in test [1]; against MMP-3 (Stromelysin-1)) were 0.05 to 1 µM, 1 to 20 µM and 0.05 to 1 µM, respectively.
Consider `CN1CCN(CCS(=O)(=O)N2CCN(S(=O)(=O)c3cc(F)c(Oc4ccc(Cl)cc4)c(F)c3)[C@@H](C(=O)NO)C2)CC1` [Entry 55], for which the IC50 against ADAM-10 was less than 0.05 µM; in test [1] it was 1 to 20 µM; in test [2], less than 0.05 µM; at MMP-3 (Stromelysin-1), 0.05 to 1 µM; against MMP-13 (collagenase-3), less than 0.05 µM.
On to `CN1CCN(CC(=O)N2CCN(S(=O)(=O)c3cc(F)c(Oc4ccc(Cl)cc4)c(F)c3)[C@@H](C(=O)NO)C2)CC1` [Entry 24], for which the IC50 was less than 0.05 µM against ADAM-10; greater than 20 µM in test [1]; less than 0.05 µM in test [2]; 1 to 20 µM at MMP-3 (Stromelysin-1); less than 0.05 µM against MMP-13 (collagenase-3).
As to `CN(C)c1ccc2ccc(S(=O)(=O)N3CCN(S(=O)(=O)c4cc(F)c(Oc5ccc(Cl)cc5)c(F)c4)[C@@H](C(=O)NO)C3)cc2c1` [Entry 50], the IC50 against ADAM-10 is 1 to 20 µM; in test [1] it was greater than 20 µM; in test [2] it was greater than 20 µM; against MMP-3 (Stromelysin-1) it was 0.05 to 1 µM; against MMP-13 (collagenase-3), less than 0.05 µM.
As for `CN1CCN(C(=O)N2CCN(S(=O)(=O)c3cc(F)c(Oc4ccc(Cl)cc4)c(F)c3)[C@@H](C(=O)NO)C2)CC1` [Entry 16], the IC50 at ADAM-10 is less than 0.05 µM; in test [1], greater than 20 µM; in test [2], less than 0.05 µM; against MMP-3 (Stromelysin-1), 1 to 20 µM; against MMP-13 (collagenase-3), less than 0.05 µM.

What is called IC50 is the midpoint of a concentration-inhibition curve. The low end stands for higher potency, the high end for lower potency.
